Assay results from patent US4618682A, “2-amino-4,5-dihydro-1H-imidazole-1-carboxanilides” (McNeilab, Inc., priority 1985, dated 1986).
Structures can show the parent of a compound that is named as a salt. Values belong to the molecule of their own block, whether it stands above or below them.

How the values were obtained:
[1] = system: Spontaneously hypertensive rat; experiment: Rodent Antihypertensive Screen (arterial pressure and heart rate, aortic cannula); format: in vivo, adult spontaneously hypertensive rats (Charles River); details: for Duration / Effect on heart rate / Max. decr. in MAP: 35 mg/kg p.o., spontaneously hypertensive rat
Text: This test evaluates compounds for effects on arterial pressure and heart rate. In this test, the arterial pressure of adult spontaneously hypertensive rats (Charles River) is monitored directly via an aortic cannula. Rats are anesthetized with an inhalation anesthetic (methoxyflurane). The left carotid artery is isolated and cannulated. The tip of the cannula is advanced to the aorta and the cannula is exteriorized behind the neck at the level of the scapula. Animals are placed in individual cages and allowed to recover from the anesthetic and are kept unrestrained. The arterial cannula is connected to the pressure transducer which is attached to the recorder. Heart rate is determined from the arterial pressure recording. The test compounds are administered either orally (p.o.) by gavage or by intraperitoneal (i.p.) injection. The arterial pressure and heart rate are monitored for a minumum of 24 hours. A test compound is considered to be active as an antihypertensive agent if the mean arterial pressure (MAP) indicates a fall of >15 mm of Hg. Each animal serves as his own control. The results of this test employing at least 3 rats per dose level for each compound and performed with various compounds of the present invention are shown in Table I.

Gastric fistula rat = experiment: acute gastric fistula rat test (antisecretory screen); format: in vivo, Female Sprague-Dawley rats; details: for inhibition in vivo at 20 mg/kg: intraduodenal, 20 mg/kg I.D., read-out: % Inhibition of gastric secretion; for ED50: po, 1 hr
Procedure: The principal antisecretory screen is the acute gastric fistula rat test which is carried out as follows: Female Sprague-Dawley rats are used for this study. The weights range from 125-250 gms; however, weights in any given test have a range of ±20 gms. The rats are fasted 24 hours before testing, water is given ad lib. At the time of fasting, the rats are placed in individual cages with wide mesh bottoms. This eliminates the problem of cannibalism and coprophagia. On the day of testing, the rats are weighed beforehand to determine the weight range and to allow for even distribution. Surgery is carried out under light ether anesthesia. As soon as the rat is anesthetized, its teeth are removed using a small pinch pliers. A midline incision is made on the abdomen about 11/2 cm long and the stomach is exposed. If, at this point, the stomach is filled with food or fecal material, the rat is discarded except for orally administered rats. In this case, the stomach contents are gently squeezed into the duodenum. Using a 4-0 polyester fiber suture, a purse string stitch is placed on the fundic portion of the stomach taking care to avoid any blood vessels in the area. A small nick is made into the stomach in the center of the purse string and a cannula, consisting of a small vinyl tube with a flange on one end, is put into the stomach and the purse string is closed tightly around the flange. Immediately following this, the rat is dosed intraduodenally using a volume of 0.5 ml per 100 gm body weight. The abdominal wall and skin are closed simultaneously with three to four 18 mm wound clips. The rat is then placed in a box containing a longitudinal slit which allows the cannula to hang freely and the rat is able to move about unencumbered. At the completion of the procedure, the time is marked 0 minutes. The rat is allowed to stabilize for 30 minutes, at which time the collection tube is discarded and replaced with a clean collection tube to receive the gastric juice. Only a one-hour collection is made for a screening study. In evaluation studies, one- and two-hour collections are made. At the end of the study, the cannula is pulled out and the rat is sacrificed. The gastric contents collected are drained into a centrifuge tube and centrifuged to pack down the sediment. The volume is read and a 1 ml aliquot of the supernatant is put into a beaker containing distilled water and titrated to pH 7 using 0.01 N NaOH. Mean values are determined for volume, titratable acid and total acid output where volume equals total ml of gastric juice minus sediment, titratable acid (mEq/1) equals amount of 0.01 N NaOH needed to titrate the acid to pH 7 times 10 and total acid output equals titratable acid times volume. Results are reported in percent inhibition over control values. In studies using oral administration, the drugs are dosed in a volume of 1 ml per 100 gm body weight one hour before surgery (pretreatment equals 90 minutes). In subcutaneous studies, the drug may be given immediately after the surgical procedure (pretreatment equals 30 minutes) or after the 30-minute stabilization period when the collection tube is changed (pretreatment time equals 0 minutes). The volume used in subcutaneous studies is 0.2 ml per 100 gm body weight.

[2] = heat sensitivity of isolated salt; format: physicochemical
Procedure: Maintained a temperature of -10° to -13° C. throughout the addition and stirred at -10° to -15° for 3 more hours. Stored the reaction mixture in the refrigerator at +4° C. overnight. Allowed to warm to +10° C. then placed in ice/ H2 O bath and acidified to pH<3 with 10% HCl. Added to 1400 ml of ice/H2 O and stirred. Filtered some insoluble material and the filtrate basified with solid K2 CO3 (keep cold!) to pH 8-9. Filtered the resulting white solid, the free base of the product. Immediately suspended in 200 ml of MeOH and dissolved by addition of ethereal HCl to pH<3. The solvent and excess HCl were removed in vacuo to yield the crude product, a white solid. The free base was regenerated again as above and converted to the hydrochloride as before. […] 210°--212° C.

sensitivity to heat [2]: sensitive to heat
loss of HCl on heating ([2]; above 50° /vac): may lose HCl
Structure (SMILES): NC1=NCCN1C(=O)Nc1ccc(Cl)c(Cl)c1 [Example 8, 2-Amino-N-(3,4-dichlorophenyl)-4,5-dihydro-1H-imidazole-1carboxamide Monohydrochloride Monohydrate, Compound with 1,1'Oxybisethane (12:1)]
Duration [1]: 2.0 h
Effect on heart rate [1]: -68 beats/min
Max. decr. in MAP [1]: 44 mm Hg
inhibition in vivo at 20 mg/kg (Gastric fistula rat): 96%
ED50 (Gastric fistula rat): 24.8 mg/kg

Structure (SMILES): NC1=NCCN1C(=O)Nc1ccc(Cl)cc1 [Example 27, 2-Amino-N-(4-chlorophenyl)-4,5-dihydro-1H-imidazole-1-carboxamide Monohydrochloride Hydrate (17:1)]
Duration [1]: 15 h
Effect on heart rate [1]: -66 beats/min
Max. decr. in MAP [1]: 41 mm Hg
antihypertensive activity compared with corresponding rearranged N-aryl-N'-(4,5-dihydro-1H-imidazol-2-yl) ureas IV ([1]; versus corresponding ureas IV): more potent antihypertensive activity
inhibition in vivo at 20 mg/kg (Gastric fistula rat): 95%
ED50 (Gastric fistula rat): 29.3 mg/kg
